Common to all, as to type: cell-based, human
One test deals with MYB. Description: Splicing RT-qPCR assay, MYB mRNA canonical junction (CJ) and alternative junction (AJ). The note with it: Homo sapiens, gene panel, CJ qPCR, protocol of Example 142; read-out: MYB IC50 (decrease in CJ mRNA levels). The essentials: (§1)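 Splice switching is measured in A673 or K562 cells after 24 h compound exposure (maximum 10 uM, 3-fold steps). Canonical and alternative junction mRNA levels are quantified by RT-qPCR relative to housekeeper and DMSO.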
Background: Quantitative PCR measures a nucleic acid by following its amplification.

A further test concerns SMN2. As to the kind of experiment: Splicing RT-qPCR panel, SMN2 canonical junction (CJ) mRNA. The note with it: Homo sapiens, gene panel, CJ qPCR, protocol of Example 142; read-out: SMN2 IC50 (decrease in CJ mRNA levels). The essentials:
as §1

For test [1], the system named is Target C. Description: Splicing RT-qPCR panel, Target C canonical junction (CJ) mRNA. The note with it: Homo sapiens, gene panel, CJ qPCR, protocol of Example 142; read-out: Target C IC50 (decrease in CJ mRNA levels). The essentials:
as §1

In test [2] the test system is Target C. As to the kind of experiment: HiBiT protein abundance assay, Target C. The note with it: Homo sapiens, K562, 24 h, Table 13B, modified K562 cells. The essentials: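 HiBiT knock-in K562-derived cells seeded at 10000/well and treated with 10-point 3-fold dilutions (top final 10 μM, ≤0.25% DMSO) for 24 h at 37 °C. Lytic HiBiT luminescence normalised to unmodified-cell and DMSO controls; IC50 from 4-parameter fit at 50% abundance.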
(In general: The HiBiT peptide binds its large partner to form an active luciferase.)

Some results are limits rather than exact numbers.

One may read the IC50 as the concentration that gives 50% inhibition. For `COc1nc(-c2ccc(OC3CC(C)(C)NC(C)(C)C3)nn2)ccc1-c1cnn(C)c1` [Compound 918], the IC50 with MYB was 100 to 1000 nM; in the test with SMN2 it was below 100 nM; in the test with Target C [1] it was 100 to 1000 nM; in the test on Target C [2] it was 100 to 1000 nM.
As for `COc1nc(-c2ccc(N(C)C3CC(C)(C)NC(C)(C)C3)nn2)ccc1-c1cn[nH]c1` [Compound 919], the IC50 in the test with MYB is 100 to 1000 nM; with SMN2, below 100 nM; in the test with Target C [1] it was 100 to 1000 nM; in the test on Target C [2], below 100 nM.
Take `COc1nc(-c2ccc(N(C)C3CC(C)(C)NC(C)(C)C3)nn2)ccc1-c1cnn(C)c1` [Compound 920]: the IC50 is 100 to 1000 nM in the test with MYB, below 100 nM with SMN2, 100 to 1000 nM with Target C [1] and 100 to 1000 nM in the test on Target C [2].
With `CN(c1ccc(-c2ccc(-c3cn[nH]c3)c(F)n2)nn1)[C@@H]1C[C@H]2CC[C@@H](C1)N2` [Compound 922], the IC50 in the test with MYB was 100 to 1000 nM; with SMN2, below 100 nM; in the test on Target C [1], 100 to 1000 nM; in the test on Target C [2], below 100 nM.
For the compound `CN(c1ccc(-c2ccc(-c3cn[nH]c3)c(C#N)n2)nn1)[C@@H]1C[C@H]2CC[C@@H](C1)N2` [Compound 930], the IC50 in the test with MYB was 100 to 1000 nM; with SMN2, below 100 nM; with Target C [1], 100 to 1000 nM; with Target C [2], below 100 nM.
In the case of `COc1nc(-c2ccc(N(C)[C@@H]3C[C@H]4CC[C@@H](C3)N4)nn2)cc(F)c1-c1cn[nH]c1` [Compound 931], the concentration for half-maximal inhibition (IC50) in the test on MYB, in the test with SMN2, in the test on Target C [1] and in the test with Target C [2] was below 100 nM throughout.
For `CN(c1ccc(-c2ccc(-c3cn[nH]c3)c(OC3CC3)n2)nn1)[C@@H]1C[C@H]2CC[C@@H](C1)N2` [Compound 939], the IC50 is 100 to 1000 nM in the test with MYB, below 100 nM in the test on SMN2, 100 to 1000 nM with Target C [1] and below 100 nM in the test on Target C [2].
Regarding `COc1cc(-c2ccc(-c3ccc(N(C)[C@@H]4C[C@H]5CC[C@@H](C4)N5)nn3)nc2OC)ncn1` [Compound 954], the IC50 in the test with MYB was in the range of 1000 to 10000 nM; in the test on SMN2 it was 100 to 1000 nM; in the test with Target C [1], 1000 to 10000 nM; in the test on Target C [2], 1000 to 10000 nM.
For `CN(c1ccc(-c2ccc(-c3cn[nH]c3)c(OC(F)F)n2)nn1)[C@@H]1C[C@H]2CC[C@@H](C1)N2` [Compound 955], the IC50 was 100 to 1000 nM with MYB, below 100 nM with SMN2, 100 to 1000 nM in the test on Target C [1] and below 100 nM in the test with Target C [2].
With `COc1nc(-c2ccc(N3CCC(NC(C)(C)C)C3)nn2)ccc1-c1cn[nH]c1` (stereo not shown) [Compound 956], the IC50 in the test on MYB is 100 to 1000 nM; in the test with SMN2, below 100 nM; in the test on Target C [1], 100 to 1000 nM; with Target C [2], 100 to 1000 nM.
`COc1nc(-c2ccc(N(C)[C@@H]3C[C@H]4CC[C@@H](C3)N4)nn2)ccc1-c1ccnc(O)c1` [Compound 961]: the IC50 with MYB, in the test with SMN2, in the test with Target C [1] and in the test on Target C [2] was 100 to 1000 nM in each case.
Consider `COc1nc(-c2ccc(O[C@@H]3C[C@H]4CC[C@@H](C3)N4)nn2)ccc1-c1cnc(C)s1` [Compound 962], for which the IC50 in the test on MYB fell in the range of 100 to 1000 nM; in the test on SMN2 it was 100 to 1000 nM; in the test with Target C [1] it was 1000 to 10000 nM; in the test with Target C [2], 100 to 1000 nM.
In the case of `COc1nc(-c2ccc(OC3CC(C)(C)NC(C)(C)C3)nn2)cc(F)c1-c1cn[nH]c1` [Compound 965], the half-maximal inhibitory concentration (IC50) in the test with MYB is 100 to 1000 nM; in the test on SMN2 it was below 100 nM; with Target C [1], 100 to 1000 nM; with Target C [2] it was below 100 nM.
As for `CCOc1nc(-c2ccc(OC3CC(C)(C)NC(C)(C)C3)nn2)cc(F)c1-c1cn[nH]c1` [Compound 966], the IC50 in the test on MYB was 100 to 1000 nM; in the test with SMN2, below 100 nM; in the test with Target C [1], below 100 nM; in the test on Target C [2], below 100 nM.
Take `CCOc1nc(-c2ccc(OC3CC(C)(C)NC(C)(C)C3)nn2)ccc1-c1cn[nH]c1` [Compound 967]: the IC50 with MYB is 100 to 1000 nM; with SMN2 it was below 100 nM; in the test on Target C [1], 100 to 1000 nM; in the test on Target C [2] it was below 100 nM.
As to `COc1nc(-c2ccc(OC3CC4CC(F)(F)C(C3)N4)nn2)cc(F)c1-c1cn[nH]c1` (stereo not shown) [Compound 969], the IC50 in the test on MYB was above 10000 nM; with SMN2 it was 1000 to 10000 nM; in the test with Target C [1], above 10000 nM; in the test with Target C [2], 100 to 1000 nM.

For the origin of these results see US20240368163A1, “COMPOUNDS AND METHODS FOR MODULATING SPLICING” (REMIX THERAPEUTICS INC., priority 2021, published 2024).
